In the case of `O=C1C=C(NC(=O)C(=O)c2cn(Cc3cc(C(F)(F)F)cc(C(F)(F)F)c3)c3ccccc23)CO1`, the melting point is reported as 276 to 278 °C.
Work on `N#Cc1ccc2nc(C(=O)NCc3ccnc(OCC4CCOC4)c3)[nH]c(=O)c2c1` (stereo unspecified) yielded a melting point of 230 to 233 °C.
Work on `CC(C)(C)c1cc(CCc2ccccc2NC(=O)NCC(C)(C)c2ccc(N3CCCC3)cc2)cc(C(C)(C)C)c1O` yielded a melting point of 195 to 196 °C.
Work on `Cc1ccnc(C(=O)c2[nH]c3ccc(Cl)cc3c2CC(=O)N2CCC(N)C2)c1` (stereo unspecified) yielded a melting point of 179 °C.
With `Cc1cc(C2N(c3ccccc3)CCN2c2ccccc2)cc(C)c1O` the melting point was 166 to 167 °C.
Work on `COc1ccc(C(=O)Oc2c(C)c(C)c3oc(C)c(-c4ccc(C(C)C)cc4)c3c2C)cc1` yielded a melting point of 113 to 115 °C.
In the case of `Cc1ccc(C)n1CCC1SCCC(=O)NC1C(N)=O` (stereo unspecified), the melting point is reported as 181 to 183 °C.
Work on `COC(=O)c1cnc2c3cc(NC(=O)C4CCCCC4)ccc3ncn2c1=O` yielded a melting point of 250 to 251 °C.
For `CNc1nc(-c2cccc(NC(=O)c3ccccc3)c2)c2cc(OCc3ccccc3)c(OC)cc2n1`, the melting point was 204 to 206 °C.
`COc1cc(OC)nc(NC(=O)NS(=O)(=O)c2ncccc2C(CCl)OC(C)=O)n1` (stereo unspecified) gave a melting point of 159 to 161 °C.
With `OC1(c2cccc(C(F)(F)F)c2)CCN(CCc2ccc3ncccc3c2)CC1` the melting point was 140 to 142 °C.
In the case of `ClCc1coc(-c2ccc(OCc3ccccc3)cc2)n1`, the melting point is reported as 119 to 120 °C.
`Cc1nn(-c2cc(Oc3ccc([N+](=O)[O-])cn3)c(Cl)cc2F)c(=O)n1C(F)F` gave a melting point of 120 to 123 °C.
Work on `CC(c1ccc2c(c1)C(=O)c1ccccc1C2=O)N1CCN(C)CC1` (stereo unspecified) yielded a melting point of 98.9 to 102 °C.
Compound `CC(C)c1nc(COC(N)=O)n(Cc2cnc3ccccc3c2)c1Sc1cc(Cl)cc(Cl)c1` has a melting point of 214 to 216 °C.
`CC(C)(C)C1=CC(=Nc2ccc(CCC(=O)O)cc2)C=C(C(C)(C)C)C1=O` gave a melting point of 165 to 167 °C.
With `CNC(=O)c1cn(C)c(=O)cc1Nc1ccc(I)cc1F` the melting point was 252 to 254 °C.
`N#CCc1cc2c(-c3ccccc3)c(CC(=O)Nc3ccc(Cl)cc3C(F)(F)F)c(=O)oc2cc1Cl` gave a melting point of 247 to 248 °C.
Compound `CC(C)Oc1cccc(-n2c(=S)[nH]c3ccccc3c2=O)c1` has a melting point of 288 to 290 °C.
Work on `CCn1cc(-c2ccccc2)c2ncccc2c1=O` yielded a melting point of 142 °C.
Compound `O=C(O)Cc1ccc(NC(=O)C(COc2cccnc2)NS(=O)(=O)c2ccc(Br)cc2)cc1` (racemic) has a melting point of 205 to 207 °C.
For `Cc1cc2c(-c3ccccc3Cl)c(NC(=O)Nc3cccc(Cl)c3)c(=O)n(C)c2cc1C`, the melting point was 208 to 210 °C.
`O=C(O)c1ccc(-c2cc3ccccc3[nH]2)cc1` showed a melting point of 205 °C.
For `CCc1[nH]n(C2CCCC2)c2nc(-c3ccc(-n4ccnc4)cc3)nc(=O)c1-2`, the melting point was over 300 °C.
`CC1(C)Cc2cccc(Cl)c2C=[N+]1[O-]` showed a melting point of 110 to 111 °C.
With `O=C(O)CCc1nn(-c2ccc(F)cc2)c2c1CCCC2` the melting point was 128 to 129 °C.
In the case of `COc1cc2c(cc1OC)N(C(=O)c1ccc(-c3ccccc3OC)c(C)c1)Cc1ccc(C(=O)N(C)CC(O)C(O)C(O)C(O)CO)n1C2` (stereo unspecified), the melting point is reported as 110 to 120 °C.
Compound `NS(=O)(=O)c1ccc(NN=C2C(=O)Nc3ccc(C(=O)NCCO)cc32)cc1` has a melting point of over 230 °C.
`Cc1cc(SCc2sc(-c3ccc(C(F)(F)F)cc3)nc2C)c2c(c1OCC(=O)O)CCO2` gave a melting point of 157 to 158 °C.
For `O=C(O)CC1CCCc2c1n(Cc1ccccc1Cl)c1c(F)cc(F)cc21` (stereo unspecified), the melting point was 197 to 198 °C.
`Nc1ncc2c(n1)-c1ccc(-c3ccccc3)cc1C(c1ccc(Cl)c(Cl)c1)C2` (stereo unspecified) gave a melting point of 186 to 187 °C.
Compound `COc1cc(C=CC(=O)c2cccc(N(C)C)c2)cc(OC)c1` has a melting point of 81.8 to 82.6 °C.
`CC(C)(S)CN(Cc1ccccc1)C(=O)CCC(=O)O` showed a melting point of 123 to 126 °C.
With `O=C1O[C@@H](CO)CN1c1ccc(N2C[C@@H]3C[C@H]2CS3)c(F)c1` the melting point was 156 to 157 °C.
`CCN(CC)CCOc1ccc(NC(=O)CC(=O)c2ccc(-c3ccccc3)cc2)cc1Cl` gave a melting point of 148 to 151 °C.
`O=c1[nH]c2cccnc2n1-c1ccc2c(c1)COC2` gave a melting point of 243 °C.
Work on `NNC(=O)c1cc2c(Oc3ccc(C(F)(F)F)cc3)cncc2s1` yielded a melting point of 146 to 147 °C.
Compound `CCOC(=O)c1cc2c(C)c(-c3cccc(Cl)c3)c(=O)oc2nc1C(=O)OCC` has a melting point of 170 to 172 °C.
Work on `C#CC[C@H]1CC[C@H](C(=O)O)CC1` yielded a melting point of 84 to 86 °C.
`Cc1nc2c(c(=O)[nH]1)-c1cc(S(=O)(=O)Nc3ccc(F)cc3)ccc1CC2` gave a melting point of over 260 °C.
For `COC(=O)c1sc2ccc(Br)cc2c1-c1ccccc1`, the melting point was 125 to 126 °C.
With `O=C(O)C(=O)C(=O)Nc1cccc([N+](=O)[O-])c1` the melting point was 110 °C.
For `CC(C)CC(=O)Nc1c(C(=O)c2cccc(C(F)(F)F)c2)[nH]c2cc(Cl)ccc12`, the melting point was 179 to 180 °C.
`O=C(c1ccccc1)c1cc(Cl)cc2c1OCC2C(=O)O` (stereo unspecified) showed a melting point of 155 to 157 °C.
For `NC(=O)c1cc(-c2ccc(Cl)cc2)sc1N`, the melting point was 255 to 257 °C.
For `CCOC(=O)c1ccc2c(c1)c(C)c(CBr)n2C(C)=O`, the melting point was 125 to 130 °C.
With `O=C(Nc1ccc(C[C@H](NS(=O)(=O)N2CCCCC2)C(=O)O)cc1)c1c(Cl)cncc1Cl` the melting point was 208 °C.
Work on `O=C(O)c1ccc(C(=O)NOCCCc2ccccc2)cc1` yielded a melting point of 171 to 173 °C.
`COC(=O)/C=C/c1nc2ccc(Cl)cc2c(=O)o1` showed a melting point of 117 to 118 °C.
Compound `COc1ccc(C(=O)Nc2ccc3ccc(C=O)nc3n2)cc1` has a melting point of 194 °C.
Compound `COc1cccc2c1CCCC2N` (stereo unspecified) has a melting point of 22 to 25 °C.
With `CC(CF)(CF)n1cc(C(=O)O)c(=O)c2cc(F)c(N3C[C@@H]4NCCO[C@@H]4C3)cc21` the melting point was over 250 °C.
Compound `CCn1cc(C(=O)O)c(=O)c2ccc(N3CCNCC3)cc21` has a melting point of 272 to 275 °C.
Compound `COCC(=O)NCCC1CCCc2ccc(OC)cc21` (single isomer, unassigned; (-)) has a melting point of 58 to 60 °C.
Compound `COc1ccc(-c2c3c(c(O)c4cc(OC)c(OC)c(OC)c24)C(=O)CCC3)cc1OC` has a melting point of 164 to 166 °C.
In the case of `CC(=C(c1ccc(F)cc1)c1ccc(F)cc1)c1nnnn1C`, the melting point is reported as 146 to 147 °C.
For `N#CS/C=C\C(=O)N1CCCCC1`, the melting point was 88 to 90 °C.
Compound `N#CCc1c[nH]c2ccc(NC(=O)c3ccc[nH]3)cc12` has a melting point of 216 to 218 °C.
`CCCn1cc(Cc2ccc(C(=O)NS(=O)(=O)c3ccccc3C)cc2OC)c2cc(CCCC(=O)N(C)C)ccc21` showed a melting point of 94 to 96 °C.
Compound `CCCCOC(=O)NNc1n[nH]c2cc(Cl)ccc12` has a melting point of 150 to 152 °C.
In the case of `COc1cccc2cc(CCl)oc12`, the melting point is reported as 44.5 to 45 °C.
In the case of `O=C(N[C@H]1CC[C@H](CCN2CCN(c3nccc4ccoc34)CC2)CC1)C1CCOCC1`, the melting point is reported as 211 °C.
Work on `CSC(=C[N+](=O)[O-])N(C)C` yielded a melting point of 60 °C.
For `CCCN(CCC)C(=O)C(CO)Nc1nc(-c2ccccc2)nc2c1CCCC2` (stereo unspecified), the melting point was 119 to 120 °C.
Compound `CSc1nn(-c2c(Cl)cc(C(F)(F)F)cc2Cl)c2ncnc(-c3ccccc3Cl)c12` has a melting point of 156 to 158 °C.
In the case of `O=C(NC12CC3CC(CC(C3)C1)C2)c1cc(O)c(O)cc1[N+](=O)[O-]`, the melting point is reported as 250 to 255 °C.
Compound `Cc1nc(C)c2cc(-c3c(Cl)cccc3Cl)c(N)nc2n1` has a melting point of 239 to 240 °C.
`CCOCC(C)(C)COc1ccc(-c2ccc3c(c2)C=C(C(=O)Nc2ccc(CN(C)C4CCOCC4)cc2)CCS3(=O)=O)cc1` gave a melting point of 209 to 210 °C.
With `O=C(Nc1ccc(-n2nc(C(F)(F)F)cc2C(F)(F)F)cc1)c1ccc(Cl)nc1Cl` the melting point was 115 to 117 °C.
Compound `CC(C)c1ccc(C(=O)[C@@H]2C[C@H]2c2ccccc2)c(C(C)C)c1OS(N)(=O)=O` (relative stereo) has a melting point of 166 to 168 °C.
`CC1(C)CCC(C)(C)c2cc3c(=O)ccoc3cc21` showed a melting point of 202 °C.
In the case of `Cc1ccc(S(=O)(=O)OCC2Cc3cccc(-c4cccc(Cl)c4)c3O2)cc1` (stereo unspecified), the melting point is reported as 101 to 103 °C.
For `COC1(OC)C(=O)NC(Nc2ncnc3c2ncn3C2OC(CO)C(O)C2O)C1Cl` (stereo unspecified), the melting point was 110 to 120 °C.
In the case of `CC(C)(C)OC(=O)Nc1cn(-c2cccnc2)nc1Br`, the melting point is reported as 109 to 112 °C.
`Clc1ccc(-c2onc3c(CBr)cccc23)cc1` gave a melting point of 153 to 155 °C.
In the case of `CCCCOc1c(CNC(=O)OC(C)(C)C)n(CC(C)C)c(=O)c2ccc(C(=O)O)cc12`, the melting point is reported as 185 to 186 °C.
For `CCOC(=O)/C=C(C)/C=C/C=C(C)/C=C/c1c(C)oc(C)c1C`, the melting point was 89 to 91 °C.
Compound `CC1(C)CCC(C(=O)COS(=O)(=O)c2ccccc2)CC1` has a melting point of 34.5 to 35 °C.
Work on `Nc1ccccc1N1CCN(CCCOc2cccc3c2CCCC3)CC1` yielded a melting point of 100 to 101 °C.
`CC(=O)OCCSCCOc1ccc(CCC(=O)O)cc1` gave a melting point of 48 to 49 °C.
In the case of `COc1cc([N+](=O)[O-])ccc1-c1cccc(C(=O)O)c1`, the melting point is reported as 88 to 88.5 °C.
For `CCc1cn2c(=O)c(C#N)cnc2c2ccccc12`, the melting point was 208 to 211 °C.
Work on `COCCOc1ccc(O)c(C(=O)O)c1` yielded a melting point of 115 to 116 °C.
`CC[C@H](C)[C@@H](CO)NC(=O)C[C@H](O)[C@H](CC(C)C)NC(=O)[C@H](CC(C)C)NC(=O)[C@H](Cc1cccc2ccccc12)NC(=O)OCc1ccccc1` showed a melting point of 206 to 212 °C.
For `O=C(O)COc1ccc2c(c1)CCc1sc(SC(c3ccccc3)c3ccccc3)nc1-2`, the melting point was 193 to 195 °C.
With `COc1ccc(-c2ccc(C)n2CC[C@H]2C[C@H](O)CC(=O)O2)cc1` (relative stereo) the melting point was 95 °C.
With `CCOC(=O)c1nn(-c2ccc(Cl)cc2Cl)c(-c2ccc(Br)cc2)c1CBr` the melting point was 116 °C.
For `NC(=O)c1cn(CCBr)nc1[N+](=O)[O-]`, the melting point was 135 to 137 °C.
Work on `CCC(=O)/C=C/c1cn(-c2ccccc2)nc1OCc1ccc(OCc2nc(-c3ccco3)oc2C)c(OC)c1` yielded a melting point of 167 to 168 °C.
For `O=C(O)c1cc2ccccc2c(=O)s1`, the melting point was 260 to 262 °C.
Compound `CSc1ccc(-c2cc(-c3nc4ccccc4c(=O)n3-c3ccc(C)cc3)sc2N2CCOCC2)cc1` has a melting point of 238 to 240 °C.
In the case of `C#CCn1ccc(CO)c1C#N`, the melting point is reported as 65 °C.
`OCC1COC2(CCN(CCc3ccccc3)CC2)O1` (stereo unspecified) gave a melting point of 96 °C.
For `COC(=O)c1ccc(-c2nnc(-c3cccc(NC(=O)Nc4ccc(C(C)C)cc4)c3)o2)cc1`, the melting point was over 270 °C.
For `CC(=O)Nc1c(C#N)cnn1-c1c(Cl)cc(Cl)cc1Cl`, the melting point was 163 to 164 °C.
Compound `CCCCN(CCCC)CCCCC(=O)c1ccc2c(c1)Cc1cc(C(=O)CCCCN(CCCC)CCCC)ccc1-2` has a melting point of 48 to 50 °C.
